Columns and labels:
[1] = test system: New Zealand white rabbits; experiment: rabbit glaucoma filtration surgery model of scar tissue formation, clinical end-points; assay type: in vivo
Text: 24 female New Zealand white rabbits (2–2.4 kg, 12—14 weeks, Highgate, UK) underwent experimental glaucoma filtration surgery to the left eye under general anaesthesia, [28]. A superonasal fornix-based conjunctival flap was raised behind the limbus and a micro-vitreoretinal blade (20 gauge, 0.90 mm, Surgistar USA) was used to make a partial thickness scleral tunnel to the corneal stroma. A 22 gauge, 25 mm intravenous cannula was passed through the tunnel and the needle was removed once it was visible in the cornea. The cannula was advanced into the mid-pupillary area, trimmed at its scleral edge and fixed to the scleral surface using a 10–0 nylon suture (Alcon, USA). The conjunctival incision was closed using two interrupted 10–0 nylon sutures. In a randomised, prospective, single-masked observer study, the rabbits received either intraoperative 0.2 mg/ml mitomycin-C (MMC) [N = 6], or postoperative subconjunctival injections (100 μl) of 100 μM CCG-203971 [N = 6] or 100 μM CCG-222740 [N = 6] or vehicle control [N = 6] daily for the first nine days followed by twice weekly for three weeks, [33]. CCG-222740 and CCG-203971 were dissolved in 100% DMSO (Sigma, UK) at 10 mM and then diluted to 100 μM with sterile PBS. The same volume of DMSO was diluted with PBS for the vehicle control. For the MMC-treated group, a small corneal light shield sponge was soaked in 1 ml of 0.2 mg/ml MMC and applied over the conjunctiva for 3 minutes, and the area was then thoroughly washed with 50 ml of physiologic balanced salt solution (Alcon Laboratories, Inc., Fort Worth, TX). All the postoperative subconjunctival injections were given at the same site by a single-masked researcher.
(§1) The animals were evaluated twice weekly by a single-masked researcher. Bleb width and length were measured using calipers and intraocular pressures (IOP) were measured using a tonovet (Icare). The primary efficacy end-point was bleb survival as this is indicative of the long-term opening of the filtration pathway created during surgery. Bleb failure was defined as the appearance of a flat, scarred, and vascularised bleb associated with a deep anterior chamber. IOP survival, defined as when the intraocular pressure remains below the baseline IOP measurement, and bleb area were used as secondary end-points. Conjunctival vascularity was graded on a scale of 0 to 3 (0: avascular, 1: normal, 2: hyperaemic, 3: very hyperaemic).

[2] = test system: New Zealand white rabbits; experiment: local and systemic toxicity after glaucoma filtration surgery; assay type: in vivo; settings: rabbit
Description: as §1
For the Ki67 staining, the sections were dewaxed, rehydrated, and microwaved for 15 minutes in sodium citrate buffer (pH 6) for antigen retrieval. After incubating in 1.6% hydrogen peroxide followed by 10% normal horse serum, the sections were incubated in mouse anti-Ki67 (M7248, Dako) diluted 1 in 25 in 1% BSA/PBS for 1 hour at room temperature. The sections were then incubated in biotinylated horse anti-mouse IgG (Vector) and Avidin-Biotin complex (Vector), developed in DAB (Vector), and counterstained in haematoxylin.
All animals were carefully evaluated for any signs of ocular or systemic toxicity during the study. At day 30, 100 µl of aqueous, 1 ml of vitreous, and 1 ml of venous blood were sampled on the rabbit eyes receiving CCG-222740 or CCG-203971 or vehicle control. The venous blood samples were left to clot for 30 minutes at room temperature, spun at 4000 rpm for 15 minutes at 4 °C, and the serum was collected as the supernatant. Samples were extracted in acetonitrile and the levels of CCG-222740 and CCG-203971 were measured in the aqueous, vitreous, and serum using liquid chromatography/mass spectrometry (LC/MS) in the Metabolomics Core at Michigan State University (East Lansing, MI).

## CO[C@@]12[C@H](COC(N)=O)C3=C(C(=O)C(C)=C(N)C3=O)N1C[C@@H]1N[C@@H]12 [MMC, mitomycin-C, reference compound]
[1]
  bleb area compared to vehicle control: significantly larger
[1]; CCG compounds 100 μM subconjunctival, MMC 0.2 mg/ml intraoperative, vehicle 14 days
  mean day of bleb failure: 28.8 days
[1]; versus vehicle control or baseline
  intraocular pressure (IOP): significantly lower
[2]; day 30
  Ki67 positive cells in the conjunctival epithelium: markedly reduced the number of Ki67 positive cells
[2]; in vivo
  conjunctival vascularity: thin avascular blebs
  local toxicity, conjunctival epithelium: caused disruption of the epithelial cell layer
